In patent US12465594B2 (Brown University, priority 2018, dated 2025):
“Also recorded” adds a separate entry of the source.

Columns and labels:
5-HT2C = biological target: T1, 5-HT2C (Homo sapiens, UniProt P28335); experiment: PDSP binding assay; details: 10 μM, quadruplicate, cloned target
T1 construct: NIMH Psychoactive Drug Screening Program (PDSP)

[1] = In vivo pharmacokinetic study, plasma and brain exposure; details: mouse, 10 mg/kg i.p.
SERT = SERT (Homo sapiens, UniProt P31645); experiment: PDSP binding assay; details: 10 μM, quadruplicate, cloned target
Sequence of SERT (P31645 whole entry, species assumed): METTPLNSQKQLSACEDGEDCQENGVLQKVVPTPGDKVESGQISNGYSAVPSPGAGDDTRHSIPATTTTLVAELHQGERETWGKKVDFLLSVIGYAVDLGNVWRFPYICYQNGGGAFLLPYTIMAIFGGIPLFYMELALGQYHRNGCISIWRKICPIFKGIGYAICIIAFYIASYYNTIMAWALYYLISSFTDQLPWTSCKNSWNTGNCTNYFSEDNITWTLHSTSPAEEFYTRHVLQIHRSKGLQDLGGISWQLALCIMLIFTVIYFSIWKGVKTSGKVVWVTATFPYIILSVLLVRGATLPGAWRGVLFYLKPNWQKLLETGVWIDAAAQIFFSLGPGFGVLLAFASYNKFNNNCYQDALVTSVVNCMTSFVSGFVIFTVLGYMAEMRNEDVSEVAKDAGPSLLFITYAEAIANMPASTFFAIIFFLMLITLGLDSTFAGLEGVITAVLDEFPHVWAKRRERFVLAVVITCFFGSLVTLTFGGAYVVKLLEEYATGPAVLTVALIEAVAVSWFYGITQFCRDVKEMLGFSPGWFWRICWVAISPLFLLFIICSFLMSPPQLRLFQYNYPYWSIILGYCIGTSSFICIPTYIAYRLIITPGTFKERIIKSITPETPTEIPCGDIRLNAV

5-HT5A = biological target: T2, 5-HT5A (Homo sapiens, UniProt P47898); experiment: PDSP binding assay; details: 10 μM, quadruplicate, cloned target
T2 construct: NIMH Psychoactive Drug Screening Program (PDSP)
T2 sequence (P47898 whole entry, species assumed): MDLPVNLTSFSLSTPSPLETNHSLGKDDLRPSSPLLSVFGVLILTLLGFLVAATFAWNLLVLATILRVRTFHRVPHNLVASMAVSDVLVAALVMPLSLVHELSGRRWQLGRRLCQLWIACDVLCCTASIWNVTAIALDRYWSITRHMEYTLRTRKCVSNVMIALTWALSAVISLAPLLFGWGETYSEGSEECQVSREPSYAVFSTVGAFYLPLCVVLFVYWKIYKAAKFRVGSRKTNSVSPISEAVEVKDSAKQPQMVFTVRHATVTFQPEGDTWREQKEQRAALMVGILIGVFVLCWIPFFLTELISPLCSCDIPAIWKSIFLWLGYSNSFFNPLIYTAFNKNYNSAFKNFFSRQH

BZP Rat Brain Site = experiment: PDSP binding assay; details: 10 μM, quadruplicate
CRFBP-CRF2 complex = biological target: T3, CRFBP-CRF2 complex (Homo sapiens, UniProt P24387+Q13324); experiment: CRFBP-CRF2 Ca2+ assay (FDSS7000; dose-response, Schild analysis); type: cell-based; details: for CRF maximal response with increasing concentrations of compound / Mechanism of antagonism relative to CRF (Schild analysis): 1.11, 3.33, 10 μM compound; for Antagonism of the CRFBP-CRF2 response: dose-response in presence of EC80 CRF
T3 construct: FLAG (N); HA (N); expressed in transfected cells
T3 sequence (P24387+Q13324 with tags, fused parts or gaps): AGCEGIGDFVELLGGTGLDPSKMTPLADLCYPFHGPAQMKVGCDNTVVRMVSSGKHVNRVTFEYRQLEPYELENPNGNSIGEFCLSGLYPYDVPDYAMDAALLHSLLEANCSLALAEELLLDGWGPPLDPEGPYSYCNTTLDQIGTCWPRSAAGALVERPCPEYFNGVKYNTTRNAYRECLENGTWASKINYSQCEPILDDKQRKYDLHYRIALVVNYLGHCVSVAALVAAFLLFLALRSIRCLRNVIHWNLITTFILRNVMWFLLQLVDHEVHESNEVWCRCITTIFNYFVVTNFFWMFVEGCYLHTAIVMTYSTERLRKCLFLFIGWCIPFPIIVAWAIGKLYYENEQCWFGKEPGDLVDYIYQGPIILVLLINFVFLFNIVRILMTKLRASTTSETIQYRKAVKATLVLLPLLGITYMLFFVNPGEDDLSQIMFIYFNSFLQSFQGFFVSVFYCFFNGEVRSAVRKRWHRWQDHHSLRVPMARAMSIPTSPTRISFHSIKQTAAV
Protocol: CRFBP-CRF2 HEK293 cells (1,000 cells/6 μL per well) were plated in 1536-well black walled clear-bottom Poly-D-Lysine coated plates (Corning) in Assay Media (Dulbecco's Modified Eagle Medium (DMEM) (1×), phenol red free, 1% Defined Fetal Bovine Serum (FBS) (Hyclone), 1×Penicillin/Streptomycin (P/S), and 1×L-Glutamine) using a Multidrop Combi (Thermo). Cell plates were spun at 500 rpm for 1 minute in a centrifuge, covered with Kalypsys lids, and incubated overnight at 37° C. in the presence of 5% CO2. The following day, 2 μL per well of FLIPR Calcium 4 Dye (Molecular Devices), prepared in Assay Buffer (1×Hanks' balanced salt solution, 20 mM HEPES, 0.1% Bovine Serum Albumin [Sigma], and 2.5 mM probenecid [Sigma], pH 7.4) was added to each well of the assay plate at 0.5×according to the Manufacturer's Instructions using the Multidrop Combi (Thermo) dispenser and the cells were incubated in dye for 1 hour 37° C. in the presence of 5% CO2. Reagents are from Invitrogen unless otherwise stated.
Calcium flux was measured using a Functional Drug Screening System 7000 (FDSS7000; Hamamatsu, Tokyo, Japan). Baseline readings were taken (9 images at 1 Hz; excitation, 470±20 nm; emission, 540±30 nm), and then test compounds (approximately 53 nL) were added at the 10 second time-point using the FDSS's integrated 1536 well pin-tool from source library plates (Corning) containing 2 mM test compound stocks in 100% DMSO. […] Agonist “Hits” were selected by comparing the amplitude of the responses at the time of test compound addition to the CRF maximal response on each plate.
For confirmation screening, the CRFBP-CRF2 Ca^2+ assay was performed in the identical as the primary screen with the following exceptions. For each test compound, eight assay plates were prepared, each of which received a different concentration of test compound by pin-tool in the FDSS7000 Ca^2+ assay. For the agonist confirmation screening, compounds were tested at 53.0 μM, 26.5 μM, 13.3 μM, 6.63 μM, 3.31 μM, 1.66 μM, 0.828 μM, and 0.414 μM. For the antagonist confirmation screening, compounds were tested at 47.1 μM, 23.6 μM, 11.8 μM, 5.89 μM, 2.94 μM, 1.47 μM, 0.736 μM, and 0.368 μM.

Alpha1A = Alpha1A (Homo sapiens, UniProt P35348); experiment: PDSP binding assay; details: 10 μM, quadruplicate, cloned target
Sequence of Alpha1A (P35348 whole entry): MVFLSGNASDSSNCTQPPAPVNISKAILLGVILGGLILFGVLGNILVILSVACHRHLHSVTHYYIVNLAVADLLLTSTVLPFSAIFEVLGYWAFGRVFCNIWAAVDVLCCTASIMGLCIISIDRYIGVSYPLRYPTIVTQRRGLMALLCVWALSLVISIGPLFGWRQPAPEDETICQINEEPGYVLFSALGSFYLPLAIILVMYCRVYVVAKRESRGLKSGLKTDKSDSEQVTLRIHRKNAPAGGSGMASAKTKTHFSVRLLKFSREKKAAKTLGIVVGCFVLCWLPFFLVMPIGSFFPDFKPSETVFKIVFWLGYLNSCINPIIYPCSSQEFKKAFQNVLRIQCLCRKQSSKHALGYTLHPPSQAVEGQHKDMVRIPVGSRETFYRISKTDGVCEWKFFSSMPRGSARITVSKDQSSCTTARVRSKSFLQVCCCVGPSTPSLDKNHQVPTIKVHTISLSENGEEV

Beta2 = Beta2 (Homo sapiens, UniProt P07550); experiment: PDSP binding assay; details: 10 μM, quadruplicate, cloned target
Sequence of Beta2 (P07550 whole entry): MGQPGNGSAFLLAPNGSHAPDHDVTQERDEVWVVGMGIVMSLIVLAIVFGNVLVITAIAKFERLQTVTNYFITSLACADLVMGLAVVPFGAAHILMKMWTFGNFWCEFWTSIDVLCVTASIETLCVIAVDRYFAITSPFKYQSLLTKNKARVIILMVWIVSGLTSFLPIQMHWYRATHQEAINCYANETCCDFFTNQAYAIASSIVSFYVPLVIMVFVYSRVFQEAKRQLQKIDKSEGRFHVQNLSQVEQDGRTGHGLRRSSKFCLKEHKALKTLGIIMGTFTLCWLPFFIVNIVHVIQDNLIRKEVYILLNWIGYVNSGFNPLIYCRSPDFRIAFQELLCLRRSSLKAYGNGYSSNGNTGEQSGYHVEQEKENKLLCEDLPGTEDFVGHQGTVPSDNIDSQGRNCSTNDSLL

KOR = KOR (Homo sapiens, UniProt P41145); experiment: PDSP binding assay; details: 10 μM, quadruplicate, cloned target
Sequence of KOR (P41145 whole entry): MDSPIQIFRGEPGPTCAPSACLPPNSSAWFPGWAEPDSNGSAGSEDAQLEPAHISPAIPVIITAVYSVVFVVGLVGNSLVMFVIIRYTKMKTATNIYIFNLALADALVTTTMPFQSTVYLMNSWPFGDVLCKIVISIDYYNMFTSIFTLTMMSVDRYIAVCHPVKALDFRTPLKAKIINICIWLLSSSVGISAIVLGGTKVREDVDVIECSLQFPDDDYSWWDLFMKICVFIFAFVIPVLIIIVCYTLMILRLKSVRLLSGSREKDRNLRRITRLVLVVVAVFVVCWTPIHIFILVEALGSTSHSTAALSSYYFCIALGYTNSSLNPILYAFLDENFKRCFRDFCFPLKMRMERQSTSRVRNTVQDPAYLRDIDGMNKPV

[2] = Plasma protein binding (equilibrium dialysis); type: in vitro ADME; details: rat plasma
Excerpt: (§1) Both compounds were then profiled for their plasma protein binding (PPB) and brain homogenate binding (BHB) to predict the unbound drug fraction in the plasma and brain respectively.

Beta1 = Beta1 (Homo sapiens, UniProt P08588); experiment: PDSP binding assay; details: 10 μM, quadruplicate, cloned target
[3] = Brain homogenate binding (equilibrium dialysis); type: in vitro ADME; details: rat brain homogenate
Excerpt: as §1

Alpha2B = Alpha2B (Homo sapiens, UniProt P18089); experiment: PDSP binding assay; details: 10 μM, quadruplicate, cloned target
Sequence of Alpha2B (P18089 whole entry): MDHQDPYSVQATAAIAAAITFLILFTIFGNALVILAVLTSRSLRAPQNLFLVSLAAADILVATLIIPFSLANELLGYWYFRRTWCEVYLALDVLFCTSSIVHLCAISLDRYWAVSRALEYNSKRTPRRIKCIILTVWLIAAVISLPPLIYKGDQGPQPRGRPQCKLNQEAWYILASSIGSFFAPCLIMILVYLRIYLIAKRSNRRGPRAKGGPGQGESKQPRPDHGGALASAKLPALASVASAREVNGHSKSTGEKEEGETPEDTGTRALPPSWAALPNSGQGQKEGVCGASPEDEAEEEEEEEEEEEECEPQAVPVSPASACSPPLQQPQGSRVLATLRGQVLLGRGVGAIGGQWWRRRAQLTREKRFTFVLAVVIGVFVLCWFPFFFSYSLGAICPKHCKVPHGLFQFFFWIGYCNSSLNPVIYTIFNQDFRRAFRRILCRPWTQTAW

D3 = D3 (Homo sapiens, UniProt P35462); experiment: PDSP binding assay; details: 10 μM, quadruplicate, cloned target
Sequence of D3 (P35462 whole entry): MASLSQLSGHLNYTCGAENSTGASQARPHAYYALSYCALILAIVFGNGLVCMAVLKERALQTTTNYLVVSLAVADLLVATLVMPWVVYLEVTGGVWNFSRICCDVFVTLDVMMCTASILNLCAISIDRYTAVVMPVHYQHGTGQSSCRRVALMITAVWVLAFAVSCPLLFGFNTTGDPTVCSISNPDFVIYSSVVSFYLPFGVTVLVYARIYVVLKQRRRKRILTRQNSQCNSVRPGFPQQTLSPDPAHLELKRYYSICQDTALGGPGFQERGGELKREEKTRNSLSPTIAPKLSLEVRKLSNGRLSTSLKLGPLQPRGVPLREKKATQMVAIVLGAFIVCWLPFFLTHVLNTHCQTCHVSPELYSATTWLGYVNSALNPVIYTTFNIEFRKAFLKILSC

M3 = M3 (Homo sapiens, UniProt P20309); experiment: PDSP binding assay; details: 10 μM, quadruplicate, cloned target
Sequence of M3 (P20309 whole entry): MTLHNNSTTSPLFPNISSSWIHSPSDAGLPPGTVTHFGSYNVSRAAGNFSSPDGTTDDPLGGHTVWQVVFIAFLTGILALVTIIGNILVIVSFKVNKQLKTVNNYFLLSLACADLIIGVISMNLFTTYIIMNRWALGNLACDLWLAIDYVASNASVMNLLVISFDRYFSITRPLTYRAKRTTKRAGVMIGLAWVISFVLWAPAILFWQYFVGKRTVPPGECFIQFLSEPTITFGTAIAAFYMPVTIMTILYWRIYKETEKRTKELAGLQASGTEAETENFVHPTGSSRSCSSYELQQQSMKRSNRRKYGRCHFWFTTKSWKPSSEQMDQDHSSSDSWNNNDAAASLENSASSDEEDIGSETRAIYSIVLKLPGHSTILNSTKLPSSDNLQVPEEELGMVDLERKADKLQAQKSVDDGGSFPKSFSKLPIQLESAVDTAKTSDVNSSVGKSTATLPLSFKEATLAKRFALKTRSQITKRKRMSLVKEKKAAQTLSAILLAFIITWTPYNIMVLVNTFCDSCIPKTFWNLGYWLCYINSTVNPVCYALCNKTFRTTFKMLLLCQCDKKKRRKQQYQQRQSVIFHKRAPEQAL

5-HT7 = biological target: T4, 5-HT7 (Homo sapiens, UniProt P34969); experiment: PDSP binding assay; details: 10 μM, quadruplicate, cloned target
T4 construct: NIMH Psychoactive Drug Screening Program (PDSP)

GABAA = experiment: PDSP binding assay; details: 10 μM, quadruplicate, cloned target
5-HT3 = biological target: T5, 5-HT3 (Homo sapiens, UniProt P46098); experiment: PDSP binding assay; details: 10 μM, quadruplicate, cloned target
T5 construct: NIMH Psychoactive Drug Screening Program (PDSP)
T5 sequence (P46098 24-478, species assumed): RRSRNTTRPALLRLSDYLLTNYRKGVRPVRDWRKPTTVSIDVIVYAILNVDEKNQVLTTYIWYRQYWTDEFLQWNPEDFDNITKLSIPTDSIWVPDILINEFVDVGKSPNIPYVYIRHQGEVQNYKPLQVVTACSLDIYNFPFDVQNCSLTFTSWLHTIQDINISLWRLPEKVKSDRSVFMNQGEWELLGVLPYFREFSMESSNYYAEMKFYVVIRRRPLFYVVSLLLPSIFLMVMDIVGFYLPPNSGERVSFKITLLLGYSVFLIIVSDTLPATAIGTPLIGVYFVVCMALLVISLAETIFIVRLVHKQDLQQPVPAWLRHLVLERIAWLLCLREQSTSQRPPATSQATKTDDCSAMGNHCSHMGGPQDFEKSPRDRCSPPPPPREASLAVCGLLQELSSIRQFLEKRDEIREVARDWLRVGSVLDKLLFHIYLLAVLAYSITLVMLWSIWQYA

5-HT2B = biological target: T6, 5-HT2B (Homo sapiens, UniProt P41595); experiment: PDSP binding assay; details: 10 μM, quadruplicate, cloned target
T6 construct: NIMH Psychoactive Drug Screening Program (PDSP)

5-HT1A = biological target: T7, 5-HT1A (Homo sapiens, UniProt P08908); experiment: PDSP binding assay; details: 10 μM, quadruplicate, cloned target
T7 construct: NIMH Psychoactive Drug Screening Program (PDSP)

Sigma 1 = experiment: PDSP binding assay; details: 10 μM, quadruplicate, cloned target

T1 sequence (P28335 33-458, species assumed): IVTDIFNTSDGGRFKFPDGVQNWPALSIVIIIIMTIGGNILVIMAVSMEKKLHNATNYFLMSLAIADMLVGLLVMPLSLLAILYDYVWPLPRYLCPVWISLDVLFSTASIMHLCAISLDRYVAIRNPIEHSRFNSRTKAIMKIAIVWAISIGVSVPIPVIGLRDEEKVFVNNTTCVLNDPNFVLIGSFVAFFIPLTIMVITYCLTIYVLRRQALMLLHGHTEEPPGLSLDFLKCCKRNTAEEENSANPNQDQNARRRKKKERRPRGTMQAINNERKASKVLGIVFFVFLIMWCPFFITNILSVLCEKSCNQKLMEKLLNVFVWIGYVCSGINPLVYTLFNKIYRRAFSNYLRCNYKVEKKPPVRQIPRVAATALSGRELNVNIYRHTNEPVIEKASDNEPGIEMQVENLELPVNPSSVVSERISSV

| Compound | Activity at 5-HT2C (binding assay) (5-HT2C) [%] | Brain exposure ([1]; 4 hour post-dose) [nM] | Brain exposure relative to IC50 ([1]; 4 hour post-dose) [×IC50] | Brain exposure ([1]; 24 hour post-dose) [nM] | Brain exposure relative to IC50 ([1]; 24 hour post-dose) [×IC50] | Plasma Cmax exposure relative to in vitro IC50 [1] [×] | Activity at SERT (binding assay) (SERT) [%] | Activity at 5-HT5A (binding assay) (5-HT5A) [%] | Activity at BZP Rat Brain Site (binding assay) (BZP Rat Brain Site) [%] | CRF maximal response with increasing concentrations of compound (CRFBP-CRF2 complex) | Mechanism of antagonism relative to CRF (Schild analysis) (CRFBP-CRF2 complex) | Antagonism of the CRFBP-CRF2 response (CRFBP-CRF2 complex) | Activity at Alpha1A (binding assay) (Alpha1A) [%] | Activity at Beta2 (binding assay) (Beta2) [%] | Activity at KOR (binding assay) (KOR) [%] | Plasma protein binding, free [2] [% free] | Activity at Beta1 (binding assay) (Beta1) [%] | Brain homogenate binding, free [3] [% free] | Activity at Alpha2B (binding assay) (Alpha2B) [%] | Activity at D3 (binding assay) (D3) [%] | also measured |
| --- | --- | --- | --- | --- | --- | --- | --- | --- | --- | --- | --- | --- | --- | --- | --- | --- | --- | --- | --- | --- | --- |
| Brc1ccccc1-c1nnc(CSc2nnnn2-c2ccccc2)o1 [MLS-0046818] | 19 | 56 | 0.10 | 40 | 0.07 | 4.8 | −14 | −1 | 35 | decreased | noncompetitively antagonize CRF responses | only inhibit the CRFBP-CRF2 response | 10 | 1 | 85 | 4.6 | 7 | 2.3 | 2 | −11 | Brain exposure relative to IC50 ([1]; 6 hour post-dose): 0.14 ×IC50; Mechanism of antagonism relative to CRF (Schild analysis) (CRFBP-CRF2 complex; listed as MLS-0046181): noncompetitive interaction; Activity at M3 (binding assay) (M3): 13%; Activity at 5-HT7 (binding assay) (5-HT7): −31%; Activity at GABAA (binding assay) (GABAA): 15%; Activity at 5-HT3 (binding assay) (5-HT3): −2%; Activity at 5-HT2B (binding assay) (5-HT2B): 67%; Activity at 5-HT1A (binding assay) (5-HT1A): 26%; Activity at Sigma 1 (binding assay) (Sigma 1): 8% |
| CC(C)Cn1c(SCC(=O)N2CCc3ccccc3C2)nc2cc(Cl)ccc2c1=O [MLS-0219419] | −7 | 245 | 0.52 | 78 | 0.17 | 1.7 | −14 | 12 | 25 | decreased | noncompetitive interaction; also recorded: noncompetitively antagonize CRF responses | only inhibit the CRFBP-CRF2 response | −15 | −13 | −10 | 0.1 | 1 | 0.0 | 0 | −6 | Activity at M3 (binding assay) (M3): 19%; Activity at 5-HT7 (binding assay) (5-HT7): 6%; Activity at GABAA (binding assay) (GABAA): 9%; Activity at 5-HT3 (binding assay) (5-HT3): 2%; Activity at 5-HT2B (binding assay) (5-HT2B): 2%; Activity at 5-HT1A (binding assay) (5-HT1A): −9%; Activity at Sigma 1 (binding assay) (Sigma 1): 7% |
